In patent US9675591B2, “Methods for treating seizure disorders and pain” (THE REGENTS OF THE UNIVERSITY OF CALIFORNIA, priority 2013, dated 2017):

System: mechanical allodynia
Experiment: Pain assay, partial ligation of the sciatic nerve (Von Frey)
Type: in vivo, rats
Conditions: 5 mg/kg, 2 hour time point
Procedure: Rats were anesthetized with sodium pentobarbital, the upper thigh shaved and wiped off with ethanol and betadine. A small incision was made in the skin and the underlying muscle separated to expose the sciatic nerve. Approximately ⅓ to ½ of the nerve was tied off by passing a needle (7.0) and nylon suture through the nerve. The muscle and skin incision were afterwards closed off and the animals kept warm until they had recovered from the anesthesia. This procedure was performed on the right side (ipsilateral) while a sham surgery exposing but not ligating the nerve was performed on the left hind leg (contralateral). After 7 days of recovery animals were tested for the development of mechanical allodynia (abnormal response to a non-noxious stimulus) by putting them in a bottomless plexiglass box placed on a wire mesh (¼″) platform. After 30-60 min of acclimatization a baseline mechanical sensitivity was determined by applying a series of calibrated Von Frey fibers perpendicularly to the plantar surface of each hind paw and holding it there for about 6 s with enough force to slightly bend the fiber. […] This was repeated until a 50% threshold for withdrawal could be determined. The allodynic threshold was then redetermined after i.p. application of SKA-19 at 5 mg/kg at the time-to-peak effect determined in the acute seizure models.

SMILES: Nc1nc2ccc(SC(F)(F)F)cc2s1 [SKA-19, 6-((trifluoromethyl)thio)benzo[d]thiazol-2-amine]
- withdrawal threshold (Von Frey): significantly increased
